Measured values reported in patent publication US11000033B2, “Ketone or oxime compound, and herbicide” (NISSAN CHEMICAL CORPORATION, priority 2014, dated 2021).

Assays:
Type in all cases: in vivo
[1] = system: Echinochloa crus-galli var. crus-galli; test: Test Example 5: herbicidal effect by foliage application, plastic box (symbol H); conditions: 320 g/ha, 3 weeks after application
Outline: (§1)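 Herbicide, formulated as an emulsion and diluted in water, is sprayed onto the aerial parts of 14-day seedlings. These were grown at 25° C. to 30° C. in sterilized diluvial soil; effects are graded after 3 weeks.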

[2] = system: Echinochloa crus-galli var. crus-galli; test: Test Example 3: herbicidal effect by foliage application, Wagner pot (symbol H); conditions: application herbicide amount 320 g/ha
Outline: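 The compound, formulated as an emulsion and diluted with water to a predetermined rate, is applied uniformly to leaves of two-week-old seedlings growing in submerged alluvial soil at 25–30 °C. Rice is included. Each plant is assessed 3 weeks later using defined criteria.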

[3] = system: Apera spica-venti; test: Test Example 5: herbicidal effect by foliage application, plastic box (symbol L); conditions: 320 g/ha, 3 weeks after application
Outline: as §1

[4] = system: corn; test: Test Example 5: effect on crop by foliage application, plastic box (symbol c); conditions: 320 g/ha, 3 weeks after application
Outline: (§2)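 Plants were raised from seed in a greenhouse (25° C. to 30° C.) after sowing in a plastic box of sterilized diluvial soil.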

[5] = system: Alopecurus myosuroides; test: Test Example 5: herbicidal effect by foliage application, plastic box (symbol J); conditions: 320 g/ha, 3 weeks after application
Outline: as §1

[6] = system: Abutilon theophrasti; test: Test Example 4: herbicidal effect by soil treatment (symbol M); conditions: application herbicide amount 320 g/ha
Outline: (§3)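 Seeds were sown in sterilized diluvial soil, covered with about 1.5 cm of soil, and the soil surface was sprayed with a water-diluted emulsion of the compound at a predetermined rate. Plants grew in a greenhouse at 25° C. to 30° C.; effects were scored visually 3 weeks after application.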

[7] = system: corn; test: Test Example 4: effect on crop by soil treatment (symbol c); conditions: application herbicide amount 320 g/ha
Outline: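 Plants are raised in a greenhouse (25° C. to 30° C.) from spot-sown seed, which sits under about 1.5 cm of sterilized diluvial soil in a box shared with weed species.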

[8] = system: Lolium multiflorum Lam.; test: Test Example 5: herbicidal effect by foliage application, plastic box (symbol K); conditions: 320 g/ha, 3 weeks after application
Outline: as §1

[9] = system: Galium spurium; test: Test Example 4: herbicidal effect by soil treatment (symbol Q); conditions: application herbicide amount 320 g/ha
Outline: as §3

[10] = system: Alopecurus myosuroides; test: Test Example 4: herbicidal effect by soil treatment (symbol J); conditions: application herbicide amount 320 g/ha
Outline: as §3

[11] = system: Veronica persica; test: Test Example 5: herbicidal effect by foliage application, plastic box (symbol R); conditions: 320 g/ha, 3 weeks after application
Outline: as §1

[12] = system: Amaranthus retroflexus; test: Test Example 5: herbicidal effect by foliage application, plastic box (symbol N); conditions: 320 g/ha, 3 weeks after application
Outline: as §1

[13] = system: Chenopodium album; test: Test Example 5: herbicidal effect by foliage application, plastic box (symbol O); conditions: 320 g/ha, 3 weeks after application
Outline: as §1

[14] = system: transplanted rice plant; test: Test Example 1: effect on crop, application before weed generation in submerged conditions (symbol a); conditions: application herbicide amount 320 g/ha
Outline: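 Rice at 2.5 leaf stage transplanted into submerged soil (4 cm depth) sown with three weed species; herbicide applied before weed emergence.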

[15] = system: soybean; test: Test Example 5: effect on crop by foliage application, plastic box (symbol d); conditions: 320 g/ha, 3 weeks after application
Outline: as §2

[16] = system: Stellaria media; test: Test Example 4: herbicidal effect by soil treatment (symbol P); conditions: application herbicide amount 320 g/ha
Outline: as §3

[17] = system: Chenopodium album; test: Test Example 4: herbicidal effect by soil treatment (symbol O); conditions: application herbicide amount 320 g/ha
Outline: as §3

Structure (SMILES) | H: Echinochloa crus-galli var. crus-galli, herbicidal effect grade [1] | herbicidal effect on H (Echinochloa crus-galli var. crus-galli), grade 0-5 [2] | L: Apera spica-venti, herbicidal effect grade [3] | c: corn, effect on crop grade [4] | J: Alopecurus myosuroides, herbicidal effect grade [5] | M (Abutilon theophrasti) herbicidal effect grade [6] | c (corn) effect on crop grade [7] | K: Lolium multiflorum Lam., herbicidal effect grade [8] | Q (Galium spurium) herbicidal effect grade [9] | J (Alopecurus myosuroides) herbicidal effect grade [10] | R: Veronica persica, herbicidal effect grade [11] | N: Amaranthus retroflexus, herbicidal effect grade [12] | O: Chenopodium album, herbicidal effect grade [13] | Effect grade on crop, a: transplanted rice plant [14] | d: soybean, effect on crop grade [15] | H: Echinochloa crus-galli var. crus-galli, herbicidal effect (criteria of Test Example 1) [1] | L: Apera spica-venti, herbicidal effect (criteria of Test Example 1) [3] | Herbicidal effect grade, M: Abutilon theophrasti [6] | Effect on crop grade, c: corn [7] | Herbicidal effect grade, J: Alopecurus myosuroides [10] | also measured
CON=C(C)CC1CC(OC(=O)C2CC2)=C(c2c(C)cc(C)cc2C)C1=O (stereo not drawn) [1-015] | 5 (Herbicidal ratio of 90% or more (almost completely withered)) | 5 (Herbicidal ratio of 90% or more (almost completely withered)) | 5 (Herbicidal ratio of 90% or more (almost completely withered)) | 5 (Herbicidal ratio of 90% or more (almost completely withered)) | 5 (Herbicidal ratio of 90% or more (almost completely withered)) | 5 (Herbicidal ratio of 90% or more (almost completely withered)) | 4 (Herbicidal ratio of 70% or higher and lower than 90%) | 5 (Herbicidal ratio of 90% or more (almost completely withered)) | 3 (Herbicidal ratio of 40% or higher and lower than 70%) | 5 (Herbicidal ratio of 90% or more (almost completely withered)) | 4 (Herbicidal ratio of 70% or higher and lower than 90%) | 4 (Herbicidal ratio of 70% or higher and lower than 90%) | 3 (Herbicidal ratio of 40% or higher and lower than 70%) | 5 (Herbicidal ratio of 90% or more (almost completely withered)) | 5 (Herbicidal ratio of 90% or more (almost completely withered)) | – | – | – | – | – | –
CC(CC1CC(O)=C(c2c(C)cc(C)cc2C)C1=O)=NOCc1ccccc1 (stereo not drawn) [1-020] | 5 (Herbicidal ratio of 90% or more (almost completely withered)) | 5 (Herbicidal ratio of 90% or more (almost completely withered)) | 5 (Herbicidal ratio of 90% or more (almost completely withered)) | 1 (Herbicidal ratio of 5% or higher and lower than 20%) | 5 (Herbicidal ratio of 90% or more (almost completely withered)) | 3 (Herbicidal ratio of 40% or higher and lower than 70%) | 1 (Herbicidal ratio of 5% or higher and lower than 20%) | 5 (Herbicidal ratio of 90% or more (almost completely withered)) | 0 (Herbicidal ratio of 5% or lower (almost no effect)) | 5 (Herbicidal ratio of 90% or more (almost completely withered)) | 4 (Herbicidal ratio of 70% or higher and lower than 90%) | – | – | 5 (Herbicidal ratio of 90% or more (almost completely withered)) | 0 (Herbicidal ratio of 5% or lower (almost no effect)) | – | – | – | – | – | P (Stellaria media) herbicidal effect grade [16]: 0 (Herbicidal ratio of 5% or lower (almost no effect))
CCc1cc(Br)cc(C)c1C1=C(O)CC(C(C(C)=O)C(=O)OC)C1=O (stereo not drawn) [7-001] | – | 4 (Herbicidal ratio of 70% or higher and lower than 90%) | – | – | – | – | – | – | – | – | – | – | – | 0 (Herbicidal ratio of 5% or lower (almost no effect)) | – | 4 (Herbicidal ratio of 70% or higher and lower than 90%) | 3 (Herbicidal ratio of 40% or higher and lower than 70%) | 0 (Herbicidal ratio of 5% or lower (almost no effect)) | 0 (Herbicidal ratio of 5% or lower (almost no effect)) | 0 (Herbicidal ratio of 5% or lower (almost no effect)) | c: corn, effect on crop (criteria of Test Example 1) [4]: 2 (Herbicidal ratio of 20% or higher and lower than 40%); J: Alopecurus myosuroides, herbicidal effect (criteria of Test Example 1) [5]: 3 (Herbicidal ratio of 40% or higher and lower than 70%); K: Lolium multiflorum Lam., herbicidal effect (criteria of Test Example 1) [8]: 5 (Herbicidal ratio of 90% or more (almost completely withered)); Herbicidal effect grade, Q: Galium spurium [9]: 0 (Herbicidal ratio of 5% or lower (almost no effect)); R: Veronica persica, herbicidal effect (criteria of Test Example 1) [11]: 0 (Herbicidal ratio of 5% or lower (almost no effect)); N: Amaranthus retroflexus, herbicidal effect (criteria of Test Example 1) [12]: 0 (Herbicidal ratio of 5% or lower (almost no effect)); d: soybean, effect on crop (criteria of Test Example 1) [15]: 0 (Herbicidal ratio of 5% or lower (almost no effect))
CC(=O)CC1CC(O)=C(c2c(C)cc(-c3ccc(Cl)cc3)cc2C)C1=O (stereo not drawn) [7-008] | – | 5 (Herbicidal ratio of 90% or more (almost completely withered)) | – | – | – | – | – | – | – | – | – | – | – | 5 (Herbicidal ratio of 90% or more (almost completely withered)) | – | 5 (Herbicidal ratio of 90% or more (almost completely withered)) | 5 (Herbicidal ratio of 90% or more (almost completely withered)) | 0 (Herbicidal ratio of 5% or lower (almost no effect)) | 4 (Herbicidal ratio of 70% or higher and lower than 90%) | 5 (Herbicidal ratio of 90% or more (almost completely withered)) | c: corn, effect on crop (criteria of Test Example 1) [4]: 5 (Herbicidal ratio of 90% or more (almost completely withered)); J: Alopecurus myosuroides, herbicidal effect (criteria of Test Example 1) [5]: 5 (Herbicidal ratio of 90% or more (almost completely withered)); K: Lolium multiflorum Lam., herbicidal effect (criteria of Test Example 1) [8]: 5 (Herbicidal ratio of 90% or more (almost completely withered)); Herbicidal effect grade, O: Chenopodium album [17]: 0 (Herbicidal ratio of 5% or lower (almost no effect)); Herbicidal effect grade, P: Stellaria media [16]: 0 (Herbicidal ratio of 5% or lower (almost no effect)); R: Veronica persica, herbicidal effect (criteria of Test Example 1) [11]: 3 (Herbicidal ratio of 40% or higher and lower than 70%); N: Amaranthus retroflexus, herbicidal effect (criteria of Test Example 1) [12]: 0 (Herbicidal ratio of 5% or lower (almost no effect)); O: Chenopodium album, herbicidal effect (criteria of Test Example 1) [13]: 2 (Herbicidal ratio of 20% or higher and lower than 40%); d: soybean, effect on crop (criteria of Test Example 1) [15]: 0 (Herbicidal ratio of 5% or lower (almost no effect))
CON=C(C)C(=NOC)C1CC(O)=C(c2c(C)cc(C)cc2C)C1=O (stereo not drawn) [8-003] | 0 (Herbicidal ratio of 5% or lower (almost no effect)) | – | 0 (Herbicidal ratio of 5% or lower (almost no effect)) | 0 (Herbicidal ratio of 5% or lower (almost no effect)) | 0 (Herbicidal ratio of 5% or lower (almost no effect)) | – | – | 2 (Herbicidal ratio of 20% or higher and lower than 40%) | – | – | 0 (Herbicidal ratio of 5% or lower (almost no effect)) | 0 (Herbicidal ratio of 5% or lower (almost no effect)) | 0 (Herbicidal ratio of 5% or lower (almost no effect)) | 0 (Herbicidal ratio of 5% or lower (almost no effect)) | 0 (Herbicidal ratio of 5% or lower (almost no effect)) | – | – | 0 (Herbicidal ratio of 5% or lower (almost no effect)) | 0 (Herbicidal ratio of 5% or lower (almost no effect)) | 0 (Herbicidal ratio of 5% or lower (almost no effect)) | H (Echinochloa crus-galli var. crus-galli) herbicidal effect grade ([2]; Table 24): 0 (Herbicidal ratio of 5% or lower (almost no effect)); Herbicidal effect grade, O: Chenopodium album [17]: 0 (Herbicidal ratio of 5% or lower (almost no effect)); Herbicidal effect grade, P: Stellaria media [16]: 0 (Herbicidal ratio of 5% or lower (almost no effect))
